Activity calls are given as the source filed them.
Tests used:
[1] = biological target: 1-phosphatidylinositol 4,5-bisphosphate phosphodiesterase gamma-1 (Homo sapiens, UniProt P19174); test: Counterscreen for inhibitors of phospholipase C isozymes (PLC-B3): Fluorescence-based biochemical high throughput dose response assay to identify inhibitors of phospholipase C isozymes (PLC-gamma1).
[2] = biological target: 1-phosphatidylinositol 4,5-bisphosphate phosphodiesterase beta-3 (Homo sapiens, UniProt Q01970); test: Fluorescence-based biochemical high throughput dose response assay to identify inhibitors of phospholipase C isozymes (PLC-B3).
Major prion protein = Major prion protein (Homo sapiens, UniProt P04156); type: functional, cell-based
cells [3] = test: cells
[4] = P. falciparum Dd2 growth inhibitors, dose response, SYBR Green, cherry-picked samples (AID 1159567); type: functional, cell-based
[5] = toxicity to human hepatoma HepG2 cells – cell-based, cherry-picked samples, cytotoxicity control, dose response (AID 1159577); type: functional
[6] = biological target: Bifunctional protein GlmU (Mycobacterium tuberculosis, UniProt P9WMN3); test: Inhibitors of Mycobacterial Glucosamine-1-phosphate acetyl transferase (GlmU). Secondary screen.; parameters: species or system Mycobacterium tuberculosis H37Rv
[7] = Luminescence Cell-Based Dose Response HTS to Identify Inhibitors of 5'UTR Stem-Loop Driven Prion Protein mRNA Translation in H4 Neuroglioblastoma Cells. [Related pubchem assays: 1827 (Project Summary), 1813 (Primary HTS)]; type: functional
[8] = biological target: T1, Oxysterols receptor LXR-beta (Homo sapiens, UniProt P55055); type: functional, cell-based
T1 sequence (P55055 whole entry): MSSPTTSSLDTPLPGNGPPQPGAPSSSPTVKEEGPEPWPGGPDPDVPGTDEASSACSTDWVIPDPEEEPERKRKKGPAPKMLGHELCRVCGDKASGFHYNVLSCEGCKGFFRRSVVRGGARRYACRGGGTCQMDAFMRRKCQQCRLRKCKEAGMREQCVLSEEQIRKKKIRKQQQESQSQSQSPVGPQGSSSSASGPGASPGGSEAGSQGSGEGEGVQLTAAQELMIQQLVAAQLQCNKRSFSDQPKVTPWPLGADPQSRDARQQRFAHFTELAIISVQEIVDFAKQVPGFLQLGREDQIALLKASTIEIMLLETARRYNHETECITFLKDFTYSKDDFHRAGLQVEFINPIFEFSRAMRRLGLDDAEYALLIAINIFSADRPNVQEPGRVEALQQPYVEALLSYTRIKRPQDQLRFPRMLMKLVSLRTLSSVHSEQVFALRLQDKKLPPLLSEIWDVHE

[9] = general mammalian cell viability loss – activator set, cherry-pick, cytotoxicity control for miR-122 modulator project, dose response (AID 720690); type: functional, cell-based;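 note: HEK293T human cells scored for general mammalian cytotoxicity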
[10] = toxicity toward HepG2 liver cells – cell-based, plate reader, cherry-pick, antagonist series, cytotoxicity control, dose response (AID 743416); type: functional
cells [11] = test: cells; remark: listed apart in the source
[12] = blockade of melanocortin 4 receptor signaling – cell-based, plate reader, cherry pick, counter-screen for LGR2 antagonist project, dose response (AID 743444); type: functional;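 note: transfected HEK 293 cells stimulated with alpha-MSH peptide; potency of inhibitors of the alpha-MSH evoked signal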
[13] = Luminescence Cell-Based Dose Confirmation HTS to Identify Inhibitors of Platelet Dense Granule Release. [Related pubchem assays: 1663 (Primary HTS), 1678 (Summary of Project)]; type: functional
[14] = blockers of bursicon-stimulated LGR2 cAMP reporter – cell-based, HEK293, CRE-luciferase reporter, cherry pick, set 2, dose response (AID 743343); type: functional;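 note: transfected cells were stimulated with diluted bursicon conditioned medium after compound addition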
[15] = biological target: Luciferin 4-monooxygenase (Photinus pyralis, UniProt P08659); test: inhibition of purified Photinus pyralis luciferase – biochemical, luminescence, dose response (AID 1891)
Protein skinhead-1 = biological target: T2, Protein skinhead-1 (Caenorhabditis elegans, UniProt P34707); type: functional
T2 sequence (P34707 whole entry): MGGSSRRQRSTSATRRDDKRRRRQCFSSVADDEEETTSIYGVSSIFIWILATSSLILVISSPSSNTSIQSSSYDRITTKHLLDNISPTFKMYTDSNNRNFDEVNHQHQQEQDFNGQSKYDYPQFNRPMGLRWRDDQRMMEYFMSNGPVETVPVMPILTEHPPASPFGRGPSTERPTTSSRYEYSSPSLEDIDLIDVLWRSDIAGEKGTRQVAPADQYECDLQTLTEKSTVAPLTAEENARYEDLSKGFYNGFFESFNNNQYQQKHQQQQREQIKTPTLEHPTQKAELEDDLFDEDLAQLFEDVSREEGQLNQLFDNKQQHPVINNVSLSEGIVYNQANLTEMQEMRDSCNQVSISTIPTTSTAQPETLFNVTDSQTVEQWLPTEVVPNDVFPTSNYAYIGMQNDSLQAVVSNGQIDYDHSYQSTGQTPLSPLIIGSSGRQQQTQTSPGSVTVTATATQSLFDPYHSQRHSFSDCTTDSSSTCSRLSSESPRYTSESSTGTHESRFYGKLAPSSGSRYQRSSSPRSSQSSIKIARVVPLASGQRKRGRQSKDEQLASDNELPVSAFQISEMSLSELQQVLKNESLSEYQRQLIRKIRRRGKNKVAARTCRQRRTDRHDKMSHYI

[16] = biological target: T1, Oxysterols receptor LXR-beta; type: functional, cell-based; remark: listed apart in the source
[17] = Luminescence-based cell-based high throughput dose response assay to identify activators of the DAF-12 from the parasite S. stercoralis (ssDAF-12).; type: functional
[18] = biological target: T1, Oxysterols receptor LXR-beta; test: LXR agonists, Gal4 luciferase reporter, dose response, counter-screen for ssDAF-12 agonist project, cell-based, luminescence, HEK293, S. stercoralis campaign (AID 720737); type: functional; settings: read-out: IC50 (the source's name)

In the case of `O=S(=O)(CS(=O)(=O)c1ccc(Br)cc1)c1ccc(Br)cc1`, the IC50 [1] is reported as 30.4 µM (inactive) and the IC50 [2] is reported as > 123 µM (inactive).
With `O=C(COc1ccc2ccccc2c1Br)NC(=S)Nc1cccc(CO)c1` the IC50 (Major prion protein) was 9.99 µM (active) and the IC50 (cells [3]) was 98.9 µM (inactive).
With `CO[C@H]1CN(C)C(=O)c2ccc(NC(=O)c3ccc(Oc4ccccc4)cc3)cc2OC[C@H](C)NC[C@H]1C` the AC50 [4] was 6.48 µM (active) and the AC50 [5] was 11.7 µM (active).
For `COc1cc(CN2C[C@@H]3N[C@H](C2)[C@@H]3c2ccc(-c3ccc(C#N)cc3)cc2)cc(OC)c1`, the AC50 [4] was 3.05 µM (active) and the AC50 [5] was 10.5 µM (active).
For `Cc1ccc(CNC(=O)CCS(=O)(=O)c2ccc(Br)cc2)cc1`, the IC50 [6] was 59.1 µM (active).
For `O=C(N/N=C/c1cccs1)c1[nH]nc2c1CCC2`, the EC50 [7] was 11 µM (inconclusive) and the EC50 [8] was > 67.5 µM (inactive).
In the case of `Cn1c(SCc2ccccc2F)nc2cccnc21`, the EC50 [8] is reported as > 67.5 µM (inactive).
For `COc1ccc(C#Cc2ccc3c(c2)O[C@H](CN(C)C(=O)CN2CCOCC2)[C@@H](C)CN([C@@H](C)CO)S3(=O)=O)cc1`, the AC50 [9] was 43.2 µM (active).
In the case of `Cc1ccc(-c2noc(-c3cccs3)n2)cc1`, the AC50 [10] is reported as > 52 µM (inactive), the EC50 (cells [11]) is reported as > 67.5 µM (inactive) and the AC50 [12] is reported as 22.3 µM (active). For the same compound, the EC50 [13] was > 112 µM (not active), the AC50 [14] was 14.4 µM (active) and the EC50 [15] was 3.98 µM (active). For the same compound, the IC50 (Protein skinhead-1) was 18.8 µM (active) and the EC50 [16] was > 67.5 µM (inactive).
For `C[C@H]1CN([C@@H](C)CO)S(=O)(=O)c2ccc(C#CC3CCCCC3)cc2O[C@@H]1CN(C)C`, the AC50 [9] was 26.4 µM (active).
For `COc1cccc(CC(=O)Nc2ccc3c(c2)c(=O)n(C)n3-c2ccc(C(C)(C)C)cc2)c1`, the IC50 [17] was > 67.6 µM (inactive) and the EC50 [18] was > 67.6 µM (inactive).

— ChEMBL document CHEMBL1201862, “PubChem BioAssay data set” (2004)
